Laboratory results taken from patent EP1200395B1, “UREA DERIVATIVES AS INHIBITORS OF CCR-3 RECEPTOR” (KIRIN BEER KABUSHIKI KAISHA, priority 1999, dated 2001).

Key:
CCR-3 [1] = biological target: T1, CCR-3 (Homo sapiens, UniProt P51677); experiment: Calcium mobilization assay (inhibition of eotaxin-induced intracellular calcium mobilization in CCR3/HEK293 cells); type: cell-based; design: expressed in transfected cells; conditions: eotaxin 10 nM; for Ca^2+ mobilization 6.25 µg/ml (inhibition %): 6.25 µg/ml test compound, CCR3/HEK293 cells (Table 2a); for Ca^2+ mobilization 1.25 µg/ml (inhibition %): 1.25 µg/ml test compound, CCR3/HEK293 cells (Table 2b)
T1 sequence (P51677 1-355): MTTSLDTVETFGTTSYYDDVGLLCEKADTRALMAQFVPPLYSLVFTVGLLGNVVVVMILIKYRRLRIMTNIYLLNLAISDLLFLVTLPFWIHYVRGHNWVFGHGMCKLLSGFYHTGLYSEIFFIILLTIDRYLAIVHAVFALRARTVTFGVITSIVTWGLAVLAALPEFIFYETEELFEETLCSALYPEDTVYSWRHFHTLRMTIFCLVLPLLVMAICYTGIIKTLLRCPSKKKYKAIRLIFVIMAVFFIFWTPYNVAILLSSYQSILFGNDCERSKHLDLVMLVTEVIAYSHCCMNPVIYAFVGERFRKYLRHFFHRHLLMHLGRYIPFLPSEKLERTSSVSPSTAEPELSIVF
Experimental: Compounds 93-162 used in this assay were synthesized by using the method described in Example 6.
CCR-3 transfectant cells (CCR3/HEK293) were isolated and resuspended with assay buffer (20 mM HEPES, 125 mM NaCl, 5 mM KCl; 0.5 mM glucose, 1 mM CaCl2, 1 mM MgCl2, 0.1 % BSA). After washing CCR3/HEK293 cells with assay buffer, cells were loaded with Fura-2/AM in assay buffer for 1 hour at room temperature. Cells were washed and resuspended with assay buffer at 5 x 10^6 cells/ml in assay buffer, and placed in a tissue culture plate (Falcon, no. 3296). Test compounds dissolved in DMSO were added to the wells, followed by eotaxin (10 nM at final concentration). Cells were excited at 340 nm and 380 nm in a fluorimeter (ARGUS50, FDSS2000, Hamamatsu Photonics) and the relative ratio of the fluorescence emitted at 510 nm was recorded. For a control, DMSO without a test compound was added. Intracellular calcium mobilization was calculated as described in Krogel C. et al. , FEBS Let. (1989) 243 , 41-46.

CCR-3 [2] = biological target: T1, CCR-3; experiment: Eotaxin-induced chemotaxis of CCR-3 transfectant cells (CCR3/U937); type: cell-based; design: expressed in transfected cells; host or cells: U937; conditions: eotaxin 1 x 10^-9 M; for Chemotaxis Assay 10 µM (inhibition %): 10 µM test compound; for Chemotaxis Assay 0.1 µg/ml (inhibition %): test compound 0.1 µg/ml, CCR3/U937 transfectants, 37 °C, 1 hour

| SMILES | Ca^2+ mobilization 6.25 µg/ml (inhibition %) (CCR-3 [1]) | Ca^2+ mobilization 1.25 µg/ml (inhibition %) (CCR-3 [1]) | other results |
| --- | --- | --- | --- |
| Cc1cccc(NC(=O)NCCCN(CCc2ccc(Cl)c(Cl)c2)C[C@@H]2CCCN2)c1 [Compound 143] | 64% | – | – |
| CC[N+](CCCNC(=O)Nc1ccc(C#N)cc1)(CCc1cccc(Cl)c1)CC1CCC1.[I-] (centres unmarked) [compound 397] | – | 69% | – |
| Cc1ccc(CCN(CCCNC(=O)Nc2cccc(Cl)c2)CCOCc2ccccc2)cc1 [Compound 152] | 54% | – | – |
| CC[N+](CCCNC(=O)Nc1ccc(Cl)c(Cl)c1)(CCOCCOC)CCc1ccc(Cl)cc1.[I-] (centres unmarked) [compound 355] | – | 63% | – |
| CC[N+](CCCNC(=O)Nc1ccc(C#N)cc1)(CCOCCOC)CCc1ccc(Cl)c(Cl)c1.[I-] (centres unmarked) [compound 396] | – | 67% | – |
| CC[N+](CCCNC(=O)Nc1ccc(C#N)cc1)(CCc1cccc(Cl)c1)CCC(C)C.[I-] (centres unmarked) [compound 393] | – | 56% | – |
| CC[N+](CCCNC(=O)Nc1ccc(OC)cc1)(CCc1cccc(Cl)c1)CC1CCC1.[I-] (centres unmarked) [compound 441] | – | 71% | – |
| O=C(NCCCN(CCc1ccc(Cl)c(Cl)c1)CC1CCCCC1)Nc1cccc(Cl)c1 [Compound 154] | 55% | – | – |
| CCOC(=O)C1CC1CN(CCCNC(=O)Nc1cccc2ccccc12)CCc1ccccc1 (centres unmarked) [Compound 162] | 50% | – | – |
| CSCCCN(CCCNC(=O)Nc1cccc(C)c1)CCc1ccc(Cl)c(Cl)c1 [Compound 142] | 58% | – | – |
| CCOC(=O)C1CC1CN(CCCNC(=O)Nc1cccc(Cl)c1)Cc1cccs1 (centres unmarked) [Compound 146] | 52% | – | – |
| CC(C)CN(CCCNC(=O)Nc1ccc(Cl)c(C(F)(F)F)c1)CCc1ccccc1 [Compound 95] | 55% | – | – |
| C=C(C)C[N+](CC)(CCCNC(=O)Nc1ccc(OC)cc1)CCc1cccc(Cl)c1.[I-] (centres unmarked) [compound 445] | – | 63% | – |
| CC[N+](CCCNC(=O)Nc1ccc(OC)cc1)(CCc1ccc(Cl)c(Cl)c1)CC1CCC1.[I-] (centres unmarked) [compound 443] | – | 69% | – |
| COc1ccc(NC(=O)NCCCN(CCCSC)C2CCCc3ccccc32)c(OC)c1 (centres unmarked) [Compound 157] | 53% | – | – |
| COC(=O)CCCN(CCCNC(=O)Nc1cccc(Cl)c1)CCc1ccc(Cl)c(Cl)c1 [Compound 156] | 63% | – | – |
| COC(=O)CCCN(CCCNC(=O)Nc1ccc(Cl)c(Cl)c1)Cc1ccc2c(c1)OCO2 [Compound 160] | 58% | – | – |
| C=C(C)C[N+](CC)(CCCNC(=O)Nc1ccc(Cl)c(Cl)c1)CCc1ccc(Cl)cc1.[I-] (centres unmarked) [compound 364] | – | 66% | – |
| CSCCCN(CCCNC(=O)Nc1ccccc1-c1ccccc1)CCc1ccccc1 [Compound 105] | 53% | – | – |
| C=C(C)C[N+](CC)(CCCNC(=O)Nc1ccc(OC)cc1)CCc1ccc(Cl)cc1.[I-] (centres unmarked) [compound 444] | – | 72% | – |
| COc1ccc(NC(=O)NCCCN(CCOCc2ccccc2)CCc2ccc(OC)c(OC)c2)cc1 [Compound 159] | 51% | – | – |
| CC(C)CN(CCCNC(=O)Nc1ccccc1-c1ccccc1)CCC(c1ccccc1)c1ccccc1 [Compound 117] | 55% | – | – |
| C=C(C)C[N+](CC)(CCCNC(=O)Nc1ccc(OC)cc1)CCc1ccc(Cl)cc1Cl.[I-] (centres unmarked) [compound 446] | – | 76% | – |
| COc1ccc(CCN(CCCNC(=O)Nc2cccc(C)c2)CCCSC)cc1OC [Compound 139] | 65% | – | – |
| Cc1ccc(CCN(CCCNC(=O)Nc2cccc(Cl)c2)CC(C)C)cc1 [Compound 151] | 54% | – | – |

| SMILES | Ca^2+ mobilization 6.25 µg/ml (inhibition %) (CCR-3 [1]) | Ca^2+ mobilization 1.25 µg/ml (inhibition %) (CCR-3 [1]) | other results |
| --- | --- | --- | --- |
| C=C(C)C[N+](CC)(CCCNC(=O)Nc1ccc(Cl)c(Cl)c1)CCc1ccc(Cl)c(Cl)c1.[I-] (centres unmarked) [compound 367] | – | 50% | – |
| CSCCCN(CCCNC(=O)Nc1ccc(Cl)c(C(F)(F)F)c1)Cc1ccc2c(c1)OCO2 [Compound 94] | 50% | – | – |
| CC[N+](CCCNC(=O)Nc1ccc(Cl)c(Cl)c1)(CCOCCOC)CCc1cccc(Cl)c1.[I-] (centres unmarked) [compound 356] | – | 57% | – |
| CCOC(=O)C1CC1CN(CCCNC(=O)Nc1cccc(Cl)c1)CCc1ccc(C)cc1 (centres unmarked) [Compound 153] | 59% | – | – |
| COc1ccc(CCN(CCCNC(=O)Nc2cccc(C)c2)CCCC(=O)O)cc1OC [Compound 140] | 54% | – | – |
| CC[N+](CCCNC(=O)Nc1ccc(C#N)cc1)(CCOCCOC)CCc1cccc(Cl)c1.[I-] (centres unmarked) [Compound 394, [3-(4-Cyanophenylureido)propyl][2-(3-chlorophenyl)ethyl][2-(2-methoxyehtoxy)ethyl] ethylammonium iodide] | – | 76% | – |
| O=C(O)CCCN(CCCNC(=O)Nc1ccccc1-c1ccccc1)Cc1ccc2c(c1)OCO2 [Compound 101] | 63% | – | – |
| O=C(NCCCN(C[C@@H]1CCCN1)C1CCCc2ccccc21)Nc1cccc(Cl)c1 (some centres unmarked) [Compound 150] | 70% | – | – |
| CC[N+](CCCNC(=O)Nc1ccc(OC)cc1)(CCc1ccc(Cl)c(Cl)c1)CCC(C)C.[I-] (centres unmarked) [compound 436] | – | 57% | – |
| CC[N+](CCCNC(=O)Nc1ccc(Cl)c(Cl)c1)(CCOCCOC)CCc1ccc(Cl)c(Cl)c1.[I-] (centres unmarked) [compound 358] | – | 63% | – |
| CSCCCN(CCCNC(=O)Nc1ccc(Br)cc1)Cc1ccc(C(F)(F)F)cc1 [Compound 130] | 51% | – | – |
| O=C(NCCCN(CCc1c[nH]cn1)CC1CCCCC1)Nc1cccc(Cl)c1 [Compound 147] | 51% | – | – |
| CC[N+](CCCNC(=O)Nc1ccc(OC)cc1)(CCOCCOC)CCc1cccc(Cl)c1.[I-] (centres unmarked) [Compound 438, [3-(4-Methoxyphenylureido)propyl][2-(3-chlorophenyl)ethyl][2-(2-methoxyehtoxy)ethyl] ethylammonium iodide] | – | 70% | – |
| CC[N+](CCCNC(=O)Nc1ccc(C#N)cc1)(CCc1ccc(Cl)cc1Cl)CC1CCC1.[I-] (centres unmarked) [compound 398] | – | 70% | – |
| O=C(O)CCCN(CCCNC(=O)Nc1cccc2ccccc12)Cc1ccc(C(F)(F)F)cc1 [Compound 161] | 51% | – | – |
| COc1ccc(NC(=O)NCCCN(CCCSC)CCc2ccc(Cl)c(Cl)c2)c(OC)c1 [Compound 158] | 50% | – | – |
| CCN(CCCNC(=O)Nc1ccc(Cl)c(C(F)(F)F)c1)C1CCCc2ccccc21 (centres unmarked) [Compound 93] | 50% | – | – |
| CC[N+](CCCNC(=O)Nc1ccc(OC)cc1)(CCc1ccc(Cl)c(Cl)c1)CC(N)=O.[I-] (centres unmarked) [compound 437] | – | 64% | – |
| O=C(NCCCN(CCc1ccc(Cl)c(Cl)c1)C[C@@H]1CCCN1)Nc1ccc(Br)cc1 [Compound 134] | 59% | – | – |
| CC[N+](CC)(CCCNC(=O)Nc1ccccc1)C1CCc2ccccc21.[I-] (centres unmarked) [compound 311] | – | – | Chemotaxis Assay 10 µM (inhibition %) (CCR-3 [2]; CCR3/U937 cells (Table 3c)): 93% |
| O=C(NCCCN(CCCCCO)C1CCCc2ccccc21)Nc1ccc(Br)cc1 (centres unmarked) [Compound 205] | – | – | Chemotaxis Assay 10 µM (inhibition %) (CCR-3 [2]; CCR3/U937 cells (Table 3a)): 97% |
| C=C(C)C[N+](CC)(CCCNC(=O)Nc1ccccc1)CCc1ccccc1.[I-] (centres unmarked) [compound 426] | – | – | Chemotaxis Assay 0.1 µg/ml (inhibition %) (CCR-3 [2]): 44% |
| CC(C)N(CCCNC(=O)Nc1ccccc1)CCc1ccc(Cl)cc1 [Compound 276] | – | – | Chemotaxis Assay 10 µM (inhibition %) (CCR-3 [2]; CCR3/U937 cells (Table 3a)): 100% |
| COC(=O)CCCN(CCCNC(=O)Nc1ccc(Cl)c(C(F)(F)F)c1)C1CCCc2ccccc21 (centres unmarked) [Compound 53] | – | – | Chemotaxis Assay 10 µM (inhibition %) (CCR-3 [2]; CCR3/U937 cells (Table 3a)): 93% |
| CC[N+](CCF)(CCCNC(=O)Nc1ccc(Br)cc1)CCc1ccc(Cl)cc1.[I-] (centres unmarked) [compound 381] | – | – | Chemotaxis Assay 0.1 µg/ml (inhibition %) (CCR-3 [2]): 68% |
